Laboratory results taken from US20100022491A1, “4-HYDROXY-2-OXO-2,3-DIHYDRO-1,3-BENZOTHIAZOL-7YL COMPOUNDS FOR MODULATION OF B2-ADRENORECEPTOR ACTIVITY” (ASTRAZENECA AB, priority 2006, published 2010).
Counter-ions that a name gives are not always drawn.

Molecular target: T1, Adrenergic β2 (Homo sapiens, UniProt P07550)
T1 construct: Adherent H292 cells were removed from tissue culture flasks; endogenous in cells; host or cells: H292 cells
Experiment: Adrenergic β2 mediated cAMP production in H292 cells
Assay type: cell-based
Settings: for EC50: read-out: β2 pEC50 (converted); for β2 Int Act: Intrinsic Activity as a fraction relative to the maximum activity determined for formoterol
Description: Adrenergic β2 mediated cAMP production
H292 cells were grown in 225 cm2 flasks incubator at 37° C., 5% CO2 in RPMI medium containing, 10% (v/v) FBS (foetal bovine serum) and 2 mM L-glutamine.
Adherent H292 cells were removed from tissue culture flasks by treatment with Accutase™ cell detachment solution for 15 minutes. Flasks were incubated for 15 minutes in a humidified incubator at 37° C., 5% CO2. Detached cells were re-suspended in RPMI media (containing 10% (v/v) FBS and 2 mM L-glutamine) at 0.05×10^6 cells per mL. 5000 cells in 100 μL were added to each well of a tissue-culture-treated 96-well plate and the cells incubated overnight in a humidified incubator at 37° C., 5% CO2. The culture media was removed and cells were washed twice with 100 μL assay buffer and replaced with 50 μL assay buffer (HBSS solution containing 10 mM HEPES pH7.4 and 5 mM glucose). Cells were rested at room temperature for 20 minutes after which time 25 μL of rolipram (1.2 mM made up in assay buffer containing 2.4% (v/v) dimethylsulphoxide) was added. Cells were incubated with rolipram for 10 minutes after which time test compounds were added and the cells were incubated for 60 minutes at room temperature. The final rolipram concentration in the assay was 300 μM and final vehicle concentration was 1.6% (v/v) dimethylsulphoxide. The reaction was stopped by removing supernatants, washing once with 100 μL assay buffer and replacing with 50 μL lysis buffer. The cell monolayer was frozen at −80° C. for 30 minutes (or overnight).
The concentration of cAMP (cyclic adenosine monophosphate) in the cell lysate was determined using AlphaScreen™ methodology. The frozen cell plate was thawed for 20 minutes on a plate shaker then 10 μL of the cell lysate was transferred to a 96-well white plate. 40 μL of mixed AlphaScreen™ detection beads pre-incubated with biotinylated cAMP, was added to each well and the plate incubated at room temperature for 10 hours in the dark. The AlphaScreen™ signal was measured using an EnVision spectrophotometer (Perkin-Elmer Inc.) with the recommended manufacturer's settings. cAMP concentrations were determined by reference to a calibration curve determined in the same experiment using standard cAMP concentrations. Concentration response curves for agonists were constructed and data was fitted to a four parameter logistic equation to determine both the pEC50 and Intrinsic Activity. Intrinsic Activity was expressed as a fraction relative to the maximum activity determined for formoterol in each experiment.

[1] = H292 cells, cAMP by AlphaScreen, 60 minutes at room temperature, rolipram 300 μM

T1 sequence (P07550 whole entry): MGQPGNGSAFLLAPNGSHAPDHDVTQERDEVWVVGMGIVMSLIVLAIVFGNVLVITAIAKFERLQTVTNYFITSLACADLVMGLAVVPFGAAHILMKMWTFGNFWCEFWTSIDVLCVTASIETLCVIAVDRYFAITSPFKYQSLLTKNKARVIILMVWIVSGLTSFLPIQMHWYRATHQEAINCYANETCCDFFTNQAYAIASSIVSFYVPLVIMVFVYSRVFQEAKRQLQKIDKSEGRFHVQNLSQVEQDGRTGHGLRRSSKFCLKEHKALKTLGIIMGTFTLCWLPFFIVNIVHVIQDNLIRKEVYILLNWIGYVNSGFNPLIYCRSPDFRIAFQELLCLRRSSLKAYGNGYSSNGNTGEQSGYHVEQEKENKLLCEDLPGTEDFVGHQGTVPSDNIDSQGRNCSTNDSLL

| β2 pEC50 [1] | EC50 [1] | β2 Int Act | SMILES | β2 Int Act (dihydrobromide salt) |
| --- | --- | --- | --- | --- |
| 8.6 |  |  | O=C(CCNCCc1cccc(F)c1)N(CCNCCc1ccc(O)c2[nH]c(=O)sc12)C1CCCCCC1 [Example 95, N-Cycloheptyl-N^3-[2-(3-fluorophenyl)ethyl]-N-(2-{[2-(4-hydroxy-2-oxo-2,3-dihydro-1,3-benzothiazol-7-yl)ethyl]amino}ethyl)-β-alaninamide dihydromide salt] |  |
|  | 2 nM | 0.75 | O=C(CCNCCc1ccc(O)cc1)N(CCNCCc1ccc(O)c2[nH]c(=O)sc12)C1CCCCC1 [Example 34, N-Cyclohexyl-N-(2-{[2-(4-hydroxy-2-oxo-2,3-dihydro-1,3-benzothiazol-7-yl)ethyl]amino}ethyl)-N^3-[2-(4-hydroxyphenyl)ethyl]-β-alaninamide bis-trifluoroacetic acid salt] |  |
|  | 316 nM | 0.70 | CCCC(CCC)N(CCNCCc1ccc(O)c2[nH]c(=O)sc12)C(=O)CCNCCc1ccc(F)cc1 [Example 64, N^3-[2-(4-Fluorophenyl)ethyl]-N^1-(2-{[2-(4-hydroxy-2-oxo-2,3-dihydro-1,3-benzothiazol-7-yl)ethyl]amino}ethyl)-N^1-(1-propylbutyl)-β-alaninamide bis-trifluoroacetic acid salt] |  |
|  | 15.8 nM | 0.82 | O=C(CCNCCc1cccc(Cl)c1)N(CCNCCc1ccc(O)c2[nH]c(=O)sc12)C1Cc2ccccc2C1 [Example 42, N^3-[2-(3-Chlorophenyl)ethyl]-N^1-(2,3-dihydro-1H-inden-2-yl)-N^1-(2-{[2-(4-hydroxy-2-oxo-2,3-dihydro-1,3-benzothiazol-7-yl)ethyl]amino}ethyl)-β-alaninamide bis-trifluoroacetic acid salt] |  |
|  | 3.98 nM | 0.84 | O=C(CCNCCc1cc(F)cc(F)c1)N(CCNCCc1ccc(O)c2[nH]c(=O)sc12)C1CCCCCC1 [Example 58, N^1-Cycloheptyl-N^3-[2-(3,5-difluorophenyl)ethyl]-N^1-(2-{[2-(4-hydroxy-2-oxo-2,3-dihydro-1,3-benzothiazol-7-yl)ethyl]amino}ethyl)-β-alaninamide bis-trifluoroacetic acid salt] |  |
|  | 79.4 nM | 0.67 | CC(C)(CNCCC(=O)N(CCNCCc1ccc(O)c2[nH]c(=O)sc12)C1CCCC1)c1ccccc1 [Example 32, N-cyclopentyl-N-(2-{[2-(4-hydroxy-2-oxo-2,3-dihydro-1,3-benzothiazol-7-yl)ethyl]amino}ethyl)-N^3-(2-methyl-2-phenylpropyl)-β-alaninamide bis-trifluoroacetic acid salt] |  |
|  | 79.4 nM | 0.23 | CCCC[C@H](C)N(CCNCCc1ccc(O)c2[nH]c(=O)sc12)C(=O)CCNCCc1ccccc1 [Example 102, N-(2-{[2-(4-Hydroxy-2-oxo-2,3-dihydro-1,3-benzothiazol-7-yl)ethyl]amino}ethyl)-N-[(1S)-1-methylpentyl]-N^3-(2-phenylethyl)-β-alaninamide bis-trifluoroacetic acid salt] |  |
|  | 2.51 nM | 0.96 | O=C(CCNCCc1cccc(Cl)c1)N(CCNCCc1ccc(O)c2[nH]c(=O)sc12)C1CCOCC1 [Example 22, N^3-[2-(3-Chlorophenyl)ethyl]-N-(2-{[2-(4-hydroxy-2-oxo-2,3-dihydro-1,3-benzothiazol-7-yl)ethyl]amino}ethyl)-N-(tetrahydro-2H-pyran-4-yl)-β-alaninamide bis-trifluoroacetic acid salt] |  |
|  | 5.01 nM | 0.85 | O=C(CCNCCc1ccccc1)N(CCNCCc1ccc(O)c2[nH]c(=O)sc12)CC12CC3CC(CC(C3)C1)C2 [Example 59, N^1-(1-Adamantylmethyl)-N^1-(2-{[2-(4-hydroxy-2-oxo-2,3-dihydro-1,3-benzothiazol-7-yl)ethyl]amino}ethyl)-N^3-(2-phenylethyl)-β-alaninamide bis-trifluoroacetic acid salt] |  |
|  | 2 nM | 0.82 | NS(=O)(=O)c1ccc(CCNCCC(=O)N(CCNCCc2ccc(O)c3[nH]c(=O)sc23)C2CCCCC2)cc1 [Example 69, N^3-{2-[4-(Aminosulfonyl)phenyl]ethyl}-N^1-cyclohexyl-N^1-(2-{[2-(4-hydroxy-2-oxo-2,3-dihydro-1,3-benzothiazol-7-yl)ethyl]amino}ethyl)-β-alaninamide bis-trifluoroacetic acid salt] |  |
|  | 20 nM | 0.76 | O=C(CCNCCc1cccc(F)c1)N(CCNCCc1ccc(O)c2[nH]c(=O)sc12)CC12CC3CC(CC(C3)C1)C2 [Example 60, N^1-(1-Adamantylmethyl)-N^3-[2-(3-fluorophenyl)ethyl]-N^1-(2-{[2-(4-hydroxy-2-oxo-2,3-dihydro-1,3-benzothiazol-7-yl)ethyl]amino}ethyl)-β-alaninamide bis-trifluoroacetic acid salt] |  |
|  | 2.51 nM | 0.84 | O=C(CCNCCc1cc(F)ccc1F)N(CCNCCc1ccc(O)c2[nH]c(=O)sc12)C1CCCCC1 [Example 79, N^1-Cyclohexyl-N^3-[2-(2,5-difluorophenyl)ethyl]-N^1-(2-{[2-(4-hydroxy-2-oxo-2,3-dihydro-1,3-benzothiazol-7-yl)ethyl]amino}ethyl)-β-alaninamide bis-trifluoroacetic acid salt] |  |
|  | 12.6 nM | 0.59 | CC(C)(CO)CN(CCNCCc1ccc(O)c2[nH]c(=O)sc12)C(=O)CCNCCc1cccc(Cl)c1 [Example 66, N^3-[2-(3-Chlorophenyl)ethyl]-N^1-(3-hydroxy-2,2-dimethylpropyl)-N^1-(2-{[2-(4-hydroxy-2-oxo-2,3-dihydro-1,3-benzothiazol-7-yl)ethyl]amino}ethyl)-β-alaninamide bis-trifluoroacetic acid salt] |  |
|  | 10 nM | 0.73 | CC(C)(C)CN(CCNCCc1ccc(O)c2[nH]c(=O)sc12)C(=O)CCNCCc1ccc(Cl)cc1 [Example 8, N^3-[2-(4-Chlorophenyl)ethyl]-N-(2,2-dimethylpropyl)-N-(2-{[2-(4-hydroxy-2-oxo-2,3-dihydro-1,3-benzothiazol-7-yl)ethyl]amino}ethyl)-β-alaninamide bis-trifluoroacetic acid salt] |  |

| SMILES | β2 pEC50 [1] | EC50 [1] | β2 Int Act | β2 Int Act (dihydrobromide salt) |
| --- | --- | --- | --- | --- |
| O=C(CCNCCc1ccccc1)N(CCNCCc1ccc(O)c2[nH]c(=O)sc12)C1CCCCCC1 [Example 98, N-Cycloheptyl-N-(2-{[2-(4-hydroxy-2-oxo-2,3-dihydro-1,3-benzothiazol-7-yl)ethyl]amino}ethyl)-N^3-(2-phenylethyl)-β-alaninamide dihydrobromide salt] |  | 1.58 nM |  | 0.8 |
| O=C(CCNCCc1cccc(F)c1F)N(CCNCCc1ccc(O)c2[nH]c(=O)sc12)C1CCCCC1 [Example 81, N^1-Cyclohexyl-N^3-[2-(2,3-difluorophenyl)ethyl]-N^1-(2-{[2-(4-hydroxy-2-oxo-2,3-dihydro-1,3-benzothiazol-7-yl)ethyl]amino}ethyl)-β-alaninamide bis-trifluoroacetic acid salt] |  | 2.51 nM | 0.89 |  |
| O=C(CCNCCc1cccc(F)c1)N(CCNCCc1ccc(O)c2[nH]c(=O)sc12)C1CCCCC1 [Example 96, N-Cyclohexyl-N^3-[2-(3-fluorophenyl)ethyl]-N-(2-{[2-(4-hydroxy-2-oxo-2,3-dihydro-1,3-benzothiazol-7-yl)ethyl]amino}ethyl)-β-alaninamide dihydrobromide salt] |  | 2.51 nM | 0.85 |  |
